The results in this text go back to US9655877B2, “Therapeutic methods for treating inflammation and immune system disorders” (priority 2009, dated 2017).

Data set [1] relates to TNF-α production in human blood macrophages. Kind of data set: LPS-induced TNF-α production in human blood macrophages (PBMac), ELISA. Type of data set: cell-based. As to conditions: 25 or 50 μg/ml for 24 hours, then 1 ng/ml LPS for 24 hours. As for the experimental part:
To measure the TNF-α level in cell culture supernatants, BV-2 cells were seeded at 1×10^5 cells/ml in the volume of 0.5 ml in 24-well culture plates. They were co-treated with or without 100 ng/ml LPS in the absence or presence of indicated concentrations of bioactive compounds of LCX for 18 h. In addition, PBMac cells were seeded at 1×10^6 cells/ml in the volume of 0.5 ml in 24-well plates. After incubation, the supernatants were collected and TNF-α levels were determined by ELISA according to the manufacturer's instructions (R&D Systems). […] To study the effect of Sen A and Z-Lig at various concentrations on TNF-α production, 1×10^6 cells/ml (FIG. 6) PBMac cells are seeded in 24-well plates (0.5 ml in each well). Cells are treated with 25 μg/ml or 50 μg/ml Sen A, Z-Lig, or DMSO for 24 hours prior to the addition of 1 ng/ml LPS, and further incubated for another 24 hours. The culture supernatants are collected and the level of secreted TNF-α is measured by ELISA according to the manufacturer's instructions (R&D Systems, Minneapolis, Minn.).
On the technique in general: ELISA stands for enzyme-linked immunosorbent assay.

Data set [2] relates to TNF-α mRNA and iNOS expression in BV-2 cells. Briefly: TNF-α mRNA and iNOS expression in LPS-treated BV-2 cells, RT-PCR. It is filed as cell-based, murine. To be noted: compound 1 hour before LPS for 6 hours. As for the experimental part: Semi-quantitative PCR assays of targeted genes were performed in a 25 μl reaction mixture containing 1.5 mM MgCl2, 0.2 mM of each deoxynucleoside triphosphate, 0.25 μM of each primer, 2 units of Taq polymerase (GE Healthcare), and 1 μl of cDNA. PCR primer sets for TNF-α and glyceraldehyde-3-phosphate dehydrogenase (GAPDH) were as follows. TNF-α (upstream: 5′-GGCTCCAGGCGGTGCT TGTCC-3′ (SEQ ID NO:1); downstream: 5′-[…]-3′ (SEQ ID NO:2)), and GAPDH (upstream: 5′-[…]-3′ (SEQ ID NO:3); downstream: 5′-[…]-3′ (SEQ ID NO:4). The thermal cycling condition for PCR was 94° C. for 30 s, 60° C. for 30 s, and 72° C. for 1 min. The cycling reactions were repeated for 24 more cycles.
The levels of TNF-α mRNA and iNOS mRNA were determined by real-time RT-PCR (Roche 480II). 18S ribosomal RNA (18S) was used as an internal control. All of the real-time RT-PCR probes were obtained from the Universal Probe Library (Roche). All of the samples were performed in duplicate. […] The relative mRNA expression of the targeted genes was calculated by 2^−ΔΔCT and expressed as fold induction.
To study the role of senkyunolide A in suppressing TNF-α production, 10^5 cells/ml BV-2 cells are seeded in 24-well plates (0.5 ml in each well). […] Total RNA of the treated samples is isolated and subjected to semi-quantitative RT-PCR assays (FIG. 9A) and quantitative RT-PCR assays (FIGS. 9B and C) using specific […] TNF-α primers.

Data set [3] relates to MAP kinases (p38, JNK, ERK 1/2). Kind of data set: Phosphorylation of MAPKs in LPS-stimulated BV-2 cells, Western blot. It is filed as cell-based, murine. To be noted: 50 μg/ml pretreatment 1 h, 100 ng/ml LPS 30 min. On the procedure: BV-2 cells (2×10^5 cells/ml) were pretreated with either 0.05% DMSO or 50 μg/ml senkyunolide A for 1 h, followed by treatment with 100 ng/ml LPS for another 30 min. (A) Cytoplasmic proteins were extracted and analyzed by Western Blot using antibodies specific for phospho-p38, phospho-JNK, phospho-ERK 1/2 and actin. (B) Nuclear proteins were extracted and analyzed by Western Blot against NF-kB p65 and lamin B antibodies. 10^5 cells/ml BV-2 cells were first pretreated with senkyunolide A for 1 h. After induction by 100 ng/ml LPS for 30 min, the culture medium was discarded. Cytoplasmic proteins and nuclear proteins were extracted separately by buffer A and buffer C as described in our previous report^28. The cell lysates were separated by 10% SDS-polyacrylamide gel electrophoresis and transferred to a nitrocellulose membrane (Schleicher & Schuell, Germany). The cell lysates were incubated with specific antibodies (phospho-MAP kinases, Actin, NF-kB p65 and Lamin B) overnight. After three washes, the membranes were incubated with the corresponding secondary antibodies. The bands were detected using the Enhanced Chemiluminescence System (GE Healthcare, Piscataway, N.J., USA) according to the manufacturer's instructions. […] Briefly, the effect of Sen A on mitogen-activated protein kinases (MAPKs) in the cell signaling cascade was investigated. […]
On the technique in general: In western blotting, separated proteins are transferred to a membrane and probed.

Data set [4] concerns Neuro-2a cells. Briefly: Conditioned culture medium transfer model (LPS-treated BV-2 supernatant on Neuro-2a), MTT assay. Type of data set: cell-based, murine. As to conditions: supernatant of BV-2 cells treated with 100 ng/ml LPS and 50 μg/ml compound 18 h, on Neuro-2a 48 h; LPS only more than 40%. On the procedure: BV-2 cells (3×10^5 cells/ml) were first treated with 100 ng/ml LPS for 18 h, in the presence of either 0.05% DMSO or 50 μg/ml senkyunolide A or Z-ligustilide. After centrifugation, the supernatants from BV-2 cells were transferred to Neuro-2a cells ([…]) for 48 h. Viability of Neuro-2a cells was measured using MTT assays. Results are shown as mean SD from three independent experiments. *p<0.05 compared with DMSO+LPS.
BV-2 cells were seeded at 3×10^5 cells/ml in 12-well culture plates (1 ml in each well). They were co-treated with or without 100 ng/ml LPS, in the presence of 0.05% DMSO, 50 μg/ml senkyunolide A, or 50 μg/ml Z-ligustilide, for 18 h. The supernatants were then collected and centrifuged at 13,200 rpm for 3 min. The resulting supernatants were then transferred to Neuro-2a cells (1×10^5 cells/ml in 24-well culture plates), which were incubated for another 48 h. Cell viability of Neuro-2a cells was measured by MTT assay.
Briefly, to investigate the physiological significance of Sen A and Z-Lig, a conditioned culture medium transfer model, commonly used for studying neuronal cell death induced by microglial activation, was adopted. After BV-2 cells were challenged with LPS, the supernatants were collected and centrifuged. The conditioned culture media were then transferred to Neuro-2a cell cultures.
On the technique in general: Formazan colour is commonly taken as a measure of viable cells.

The subject of data set [5] is Neuro-2a cells. Briefly: Neuro-2a cells treated with compound alone in the culture media. It is filed as cell-based, murine. To be noted: compound alone in the culture media (data not shown). From the text: Specifically, a significant reduction in cell death, to less than 15% and 25%, respectively, was observed.

For the molecule `CCCC[C@H]1OC(=O)C2=C1CCC=C2` [senkyunolide A], in data set [1], the “effect on endotoxin-induced TNF-α production” value is on record as “suppress endotoxin-induced TNF-α production in a dose-dependent manner”. For the same molecule, in data set [2], the “effect on TNF-α mRNA expression” value is given as “inhibits TNF-α mRNA”; the “effect on iNOS expression” value is “inhibits TNF-α mRNA and iNOS expression”. In addition, the “effect on levels of phosphorylation of MAPKs (p38, JNK, ERK 1/2)” value in data set [3] was “did not exert any effect”. Besides, the “cell death of Neuro-2a cells” value in data set [4] is “less than 15%”. In data set [5], the “cell death with compound alone” value is “did not show cell death”.
